Experimental data from US20150148235A1, “HERBICIDE-RESISTANT SUNFLOWER PLANTS WITH MULTIPLE HERBICIDE RESISTANT ALLELES OF AHASL1 AND METHODS OF USE” (NIDERA S.A., priority 2013, published 2015).
Several values for one entry are separate records, joined by “and”; a condition that tells them apart may be missing. Identical values can stand only once. Marks after values point to notes of the source that are not given here.

Test system: sunflower lines (WT, A122T/A122T, A122T/P197L, P197L/P197L)
Assay: Greenhouse whole-plant response to metsulfuron methyl, Example 5
Type: in vivo, Helianthus annuus
Conditions: 14 DAT
Experimental: Seeds were sown in Petri dishes and, after germination, plantlets were transplanted into 10 cm pots containing potting media consisting of equal parts of vermiculite, soil, and sand. Plants were grown in the greenhouse under natural light conditions supplemented with 400 W sodium halide lamps to provide a 16 hr daylength. Day/night temperatures were 25 and 20° C., respectively. At the V2-V4 stage (Schneiter & Miller, 1981) 20 plants of each genotype were randomly assigned to each treatment consisting of three metsulfuron methyl doses (0 or no treatment, 5 g ai/ha or a 1× rate, and 10 g ai/ha or a 2× rate). A zero-time biomass determination was also conducted. The experiment was arranged as a randomized complete block design (RCBD) with a full factorial arrangement of treatments and 20 replications (sunflower line×treatment).
For the zero-time dried weight determination, ten plants of each genotype were cut at the cotyledonal node on the day of herbicide application and dried at 60° C. for 48 hr. The rest of the plants were maintained for 14 days after herbicide treatment (DAT) and their height, Phytotoxicity Index (PI) and above ground dry biomass were recorded. Height was determined as the distance between the cotyledonal node and the apex of each plant. The above ground biomass data for each line was converted to biomass accumulation after application by subtracting the appropriate average zero-time biomass from each sample. Height and dry biomass were converted to a percentage of the untreated control for each line to allow direct comparisons between groups.
The data was subjected to an ANOVA and the means were compared by an LSD test.

[1] = BTSu-R1 (P197L/P197L), 1X (5 g ai./ha)
[2] = BTSu-R1 (P197L/P197L), 2X (10 g ai./ha)
[3] = GM40 (A122T/A122T), 1X (5 g ai./ha)
[4] = GM40 (A122T/A122T), 2X (10 g ai./ha)
[5] = GM1606 (A122T/A122T), 1X (5 g ai./ha)
[6] = GM1606 (A122T/A122T), 2X (10 g ai./ha)
[7] = L4 (A122T/A122T), 1X (5 g ai./ha)
[8] = L4 (A122T/A122T), 2X (10 g ai./ha)
[9] = cmsGM40xBTSu-R1 (A122T/P197L), 1X (5 g ai./ha)
[10] = cmsGM40xBTSu-R1 (A122T/P197L), 2X (10 g ai./ha)
[11] = cmsGM40xL4 (A122T/A122T), 1X (5 g ai./ha)
[12] = cmsGM40xL4 (A122T/A122T), 2X (10 g ai./ha)

Compound: COC(=O)c1ccccc1S(=O)(=O)NC(=O)Nc1nc(C)nc(OC)n1 [metsulfuron]
- Dry Matter accumulation (DMA) (B770 (WT), 1X (5 g ai./ha)): 28.43^b %
- Phytotoxicity Index (PI) (scale 0-9) (B770 (WT), 1X (5 g ai./ha)): 8.50^bc
- Dry Matter accumulation (DMA) (B770 (WT), 2X (10 g ai./ha)): 28.77^b %
- Mean Height Reduction (PH) (B770 (WT), 2X (10 g ai./ha)): 18.20^a %
- Phytotoxicity Index (PI) (scale 0-9) (B770 (WT), 2X (10 g ai./ha)): 9.00^d
- Dry Matter accumulation (DMA) [1]: 88% and 88.1% and 88.10^d %
- Mean Height Reduction (PH) [1]: 79.01^b %
- Dry Matter accumulation (DMA) [2]: 77% and 76.69^c %
- Mean Height Reduction (PH) [2]: 80.85^c %
- Dry Matter accumulation (DMA) [3]: 25.73^ab %
- Mean Height Reduction (PH) [3]: 21.39^a %
- Phytotoxicity Index (PI) (scale 0-9) [3]: 9.00^d
- Dry Matter accumulation (DMA) [4]: 20.69^a %
- Mean Height Reduction (PH) [4]: 21.17^a %
- Phytotoxicity Index (PI) (scale 0-9) [4]: 9.00^d
- Dry Matter accumulation (DMA) [5]: 30.39^b %
- Mean Height Reduction (PH) [5]: 21.55^a %
- Phytotoxicity Index (PI) (scale 0-9) [5]: 8.70^d
- Dry Matter accumulation (DMA) [6]: 20.45^a %
- Mean Height Reduction (PH) [6]: 21.70^a %
- Phytotoxicity Index (PI) (scale 0-9) [6]: 9.00^d
- Dry Matter accumulation (DMA) [7]: 25.40^ab %
- Mean Height Reduction (PH) [7]: 19.47^a %
- Phytotoxicity Index (PI) (scale 0-9) [7]: 8.25^b
- Dry Matter accumulation (DMA) [8]: 18.80^a %
- Mean Height Reduction (PH) [8]: 18.73^a %
- Phytotoxicity Index (PI) (scale 0-9) [8]: 8.5^c
- Dry Matter accumulation (DMA) [9]: 74.4% and 74.36^c %
- Mean Height Reduction (PH) [9]: 77.04^b %
- Phytotoxicity Index (PI) (scale 0-9) [9]: 0.00^a
- Dry Matter accumulation (DMA) [10]: 72.66^c %
- Mean Height Reduction (PH) [10]: 62% and 61.99^b %
- Dry Matter accumulation (DMA) [11]: 19.90^a %
- Mean Height Reduction (PH) [11]: 22.45^a %
- Phytotoxicity Index (PI) (scale 0-9) [11]: 8.67 ^d
- Dry Matter accumulation (DMA) [12]: 18.23^a %
- Mean Height Reduction (PH) [12]: 20.56^a %
- Phytotoxicity Index (PI) (scale 0-9) [12]: 8.82^cd
